One experiment addresses T1, IKKε (Homo sapiens, UniProt Q14164).
T1 sequence (Q14164 1-716): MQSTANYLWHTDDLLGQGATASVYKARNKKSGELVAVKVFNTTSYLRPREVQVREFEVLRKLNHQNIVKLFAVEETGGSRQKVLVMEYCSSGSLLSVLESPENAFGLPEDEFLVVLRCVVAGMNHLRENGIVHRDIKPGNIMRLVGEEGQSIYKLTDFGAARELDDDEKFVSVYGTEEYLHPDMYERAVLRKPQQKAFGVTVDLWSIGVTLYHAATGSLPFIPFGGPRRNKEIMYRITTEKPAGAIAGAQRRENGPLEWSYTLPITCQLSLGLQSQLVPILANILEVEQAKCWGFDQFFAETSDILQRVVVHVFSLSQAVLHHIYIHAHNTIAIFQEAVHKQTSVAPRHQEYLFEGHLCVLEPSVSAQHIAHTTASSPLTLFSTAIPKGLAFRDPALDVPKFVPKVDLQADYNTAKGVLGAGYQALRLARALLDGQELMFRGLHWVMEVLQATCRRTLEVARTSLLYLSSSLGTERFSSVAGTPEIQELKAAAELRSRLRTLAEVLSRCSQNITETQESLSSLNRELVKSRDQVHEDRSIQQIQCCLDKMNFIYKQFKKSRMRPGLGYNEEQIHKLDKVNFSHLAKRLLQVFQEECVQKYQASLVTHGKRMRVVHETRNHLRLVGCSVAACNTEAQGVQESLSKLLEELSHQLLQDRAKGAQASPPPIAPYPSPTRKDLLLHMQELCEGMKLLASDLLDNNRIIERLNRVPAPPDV
The experiment can be described thus: IKKe Biochemical Assay. The conditions noted are these: read-out: IKKε IC50. On the procedure:
Test compounds were transferred into Labcyte polypropylene 384 well plates (P055-25) and diluted to 3 mM using DMSO. 3 mM test compounds were dispensed using Labcyte ECHO dose response module into (Greiner 784075 plates (columns 3-12 and 13-22, 10 point 1:4) so that high concentration was 30 uM final. 100 uM of a reference compound (1 uM final high concentration). Backfilling was performed if necessary so that all wells contain 1% DMSO final: […]
add 75 nl DMSO/well into columns 1, 2 and 24 using Labcyte Echo. add 75 nl 1.0 mM staurosporine/well into column 23 using Labcyte Echo (10 uM final) add 4.5 ul enzyme/well using multidrop dispenser add 3 ul substrate/well using multidrop dispenser incubate at 25° C. for 90 min. add 7.5 ul 2× stop buffer read on labchip ez reader II using IKKε. job
(§1) Raw data files were opened in the Caliper LabChip Reviewer program (Version 3.0.265.0 SP2) and peak assignments were adjusted to reflect “substrate first” with the software's post-run analysis options. A spline-fit baseline was applied using the software's analysis algorithm.

A further experiment addresses T2, TBK1 (Homo sapiens, UniProt Q9UHD2).
T2 sequence (Q9UHD2 1-729): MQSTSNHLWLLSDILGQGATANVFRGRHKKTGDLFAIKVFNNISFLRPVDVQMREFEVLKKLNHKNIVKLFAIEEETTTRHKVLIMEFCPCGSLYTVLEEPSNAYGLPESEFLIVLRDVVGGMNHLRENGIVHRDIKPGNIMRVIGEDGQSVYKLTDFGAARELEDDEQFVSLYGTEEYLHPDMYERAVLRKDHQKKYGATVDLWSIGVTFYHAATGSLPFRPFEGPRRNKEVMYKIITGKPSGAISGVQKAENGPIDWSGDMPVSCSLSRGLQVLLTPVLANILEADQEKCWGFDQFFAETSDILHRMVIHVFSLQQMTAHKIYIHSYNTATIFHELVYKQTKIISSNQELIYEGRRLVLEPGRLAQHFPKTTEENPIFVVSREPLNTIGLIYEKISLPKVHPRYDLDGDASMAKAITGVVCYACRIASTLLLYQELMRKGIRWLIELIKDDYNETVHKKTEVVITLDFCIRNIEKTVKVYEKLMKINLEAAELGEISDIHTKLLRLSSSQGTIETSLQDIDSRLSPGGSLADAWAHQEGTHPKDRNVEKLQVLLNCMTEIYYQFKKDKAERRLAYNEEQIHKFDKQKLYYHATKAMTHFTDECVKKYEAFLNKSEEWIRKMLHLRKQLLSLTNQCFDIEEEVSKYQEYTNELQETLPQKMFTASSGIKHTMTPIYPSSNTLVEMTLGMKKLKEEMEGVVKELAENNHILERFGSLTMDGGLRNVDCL
Briefly: TBK Biochemical Assay. The following applies: read-out: TBK1 IC50. The protocol: Example 482: TBK Biochemical Assay
Test compounds were transferred into Labcyte polypropylene 384 well plates (P055-25) and diluted to 3 mM using DMSO. 3 mM test compounds were dispensed using Labcyte ECHO dose response module into Greiner 784075 plates (columns 3-12 and 13-22, 10 point 1:4) so that high concentration was 30 uM final. 100 uM of a reference compound (1 uM final high concentration). Backfilling was performed if necessary so that all wells contain 1% DMSO final: […]
add 75 nl DMSO/well into columns 1, 2 and 24 using Labcyte Echo. add 75 nl 1.0 mM staurosporine/well into column 23 using Labcyte Echo ([…]) add 4.5 ul enzyme/well using multidrop dispenser add 3 ul substrate/well using multidrop dispenser incubate at 25° C. in Heidolph incubator for 90 min. add 7.5 ul 2× stop buffer using multidrop dispenser read on labchip ez reader II using TBK1.job
as §1

This note sets out measurements from US10428080B2, “TBK/IKK inhibitor compounds and uses thereof” (Merck Patent GmbH, priority 2015, dated 2019).

Where a name gives a salt, the structure may show the parent alone.

As usually defined, the IC50 is the concentration that inhibits the measured activity by half. Regarding `COc1cc(C(=O)N(C)C)ccc1-c1cc2nccc(-c3ccc(OC4CCOCC4OCc4ccccc4)c(C#N)c3)c2o1` (centres unmarked) [Compound 211], the IC50 at IKKε lay within 0.1 to 1 µM. Turning to `COc1ccc(C#N)cc1-c1ccnc2cc(-c3ncc(C(=O)N(C)C)cc3OC)oc12` [Compound 490, 6-{7-[5-Cyano-2-methoxy-phenyl)-furo[3,2-b]pyridin-2-yl}-5-methoxy-N,N-dimethyl-nicotinamide], the 50% inhibitory concentration (IC50) at TBK1 was greater than 5 µM. For `COc1cc(C(=O)N(C)CCO)cnc1-c1cc2ncc(C(C)C)c(-c3ccc(OC4CCOCC4)c(C#N)n3)c2o1` [Compound 359, 6-[7-[6-cyano-5-(oxan-4-yloxy)pyridin-2-yl]-6-(propan-2-yl)furo[3,2-b]pyridin-2-yl]-N-(2-hydroxyethyl)-5-methoxy-N-methylpyridine-3-carboxamide hydrochloride], the IC50 on TBK1 was greater than 5 µM. On the same count and under the same terms, the same measure for `COc1cc(C(=O)N(C)C)cnc1-c1cc2ncc(C3CC3)c(-c3ccc(NC4CCOCC4)c(C#N)c3)c2o1` [Compound 522, 6-(7-[3-cyano-4-[(oxan-4-yl)amino]phenyl]-6-cyclopropylfuro[3,2-b]pyridin-2-yl)-5-methoxy-N,N-dimethylpyridine-3-carboxamide]: greater than 5 µM. The same measure, in the same setting: for `CN(CCO)C(=O)c1ccc(-c2cc3ncc(C4CC4)c(-c4ccc(OC5CCOCC5)c(C#N)c4)c3o2)c(F)c1` [Compound 312, 4-(7-(3-cyano-4-(tetrahydro-2H-pyran-4-yloxy)phenyl)-6-cyclopropylfuro[3,2-b]pyridin-2-yl)-3-fluoro-N-(2-hydroxyethyl)-N-methylbenzamide] the value was greater than 5 µM. Regarding `COC(=O)c1ccc(-c2cc3nccc(-c4ccc(Oc5ccccc5F)c(C#N)c4)c3o2)cc1` [Compound 205], the half-inhibitory concentration (IC50) at IKKε was greater than 5 µM. As to `COc1cc(C(=O)N(C)C)cnc1-c1cc2ncc(C3CC3)c(-c3ccc(NC4CCOCC4)c(C#N)n3)c2o1` [Compound 353, 6-(7-[6-cyano-5-[(oxan-4-yl)amino]pyridin-2-yl]-6-cyclopropylfuro[3,2-b]pyridin-2-yl)-5-methoxy-N,N-dimethylpyridine-3-carboxamide hydrochloride], the IC50 on TBK1 is greater than 5 µM. For `COc1cc(C(=O)N(C)C)cnc1-c1cc2ncc(Cl)c(-c3ccc(NC4CCOCC4)c(C#N)c3)c2o1` [Compound 337, 6-(6-chloro-7-[3-cyano-4-[(oxan-4-yl)amino]phenyl]furo[3,2-b]pyridin-2-yl)-5-methoxy-N,N-dimethylpyridine-3-carboxamide], the half-maximal inhibitory concentration (IC50) at TBK1 is greater than 5 µM. Same read-out and setting: the same measure for `COc1cc(C(=O)N(C)C)cnc1-c1cc2ncc(C(C)C)c(-c3ccc(NC4CCOCC4)c(C#N)n3)c2o1` [Compound 361, 6-(7-[6-cyano-5-[(oxan-4-yl)amino]pyridin-2-yl]-6-(propan-2-yl)furo[3,2-b]pyridin-2-yl)-5-methoxy-N,N-dimethylpyridine-3-carboxamide]: greater than 5 µM. The same measure, in the same setting: for `COc1cc(C(=O)N(C)C)cnc1-c1cc2ncc(C(C)C)c(-c3ccc(OC4CCOCC4)c(C#N)c3)c2o1` [Compound 332, 6-[7-[3-cyano-4-(oxan-4-yloxy)phenyl]-6-(propan-2-yl)furo[3,2-b]pyridin-2-yl]-5-methoxy-N,N-dimethylpyridine-3-carboxamide] the value was greater than 5 µM. Still for that read-out and setting: the same measure for `COc1cc(C(=O)N(C)C)cnc1-c1cc2ncc(C(C)C)c(-c3ccc(OC4CCOCC4)c(C#N)n3)c2o1` [Compound 331, 6-[7-[6-cyano-5-(oxan-4-yloxy)pyridin-2-yl]-6-(propan-2-yl)furo[3,2-b]pyridin-2-yl]-5-methoxy-N,N-dimethylpyridine-3-carboxamide hydrochloride]: greater than 5 µM. On to `COc1cc(C(=O)N(C)C)ccc1-c1cc2nccc(-c3cc(F)c(OC4C(C)COCC4C)c(C#N)c3)c2o1` (centres unmarked) [Compound 294, 4-(7-[3-cyano-4-[(3,5-dimethyloxan-4-yl)oxy]-5-fluorophenyl]furo[3,2-b]pyridin-2-yl)-3-methoxy-N,N-dimethylbenzamide], for which the IC50 on TBK1 is greater than 5 µM.

With `COc1cc(C(=O)N(C)C)cnc1-c1cc2ncc(C(C)C)c(-c3ccc(NC4CCOCC4)c(C#N)c3)c2o1` [Compound 335, 6-(7-[3-cyano-4-[(oxan-4-yl)amino]phenyl]-6-(propan-2-yl)furo[3,2-b]pyridin-2-yl)-5-methoxy-N,N-dimethylpyridine-3-carboxamide hydrochloride], the IC50 on TBK1 was greater than 5 µM. On to `CN(C)C(=O)c1cnc(-c2cc3nccc(-c4cc(F)c(NC5CCOCC5)c(C#N)c4)c3o2)c(F)c1` [Compound 248, 6-(7-(3-cyano-5-fluoro-4-(tetrahydro-2H-pyran-4-ylamino)phenyl)furo[3,2-b]pyridin-2-yl)-5-fluoro-N,N-dimethylnicotinamide], for which, on IKKε, the IC50 is 0.1 to 1 µM. Take `CC1COCC(C)C1Oc1c(F)cc(-c2ccnc3cc(-c4ccc(C(=O)N(C)C)cc4)oc23)cc1C#N` (centres unmarked) [Compound 289, 4-(7-[3-cyano-4-[(3,5-dimethyloxan-4-yl)oxy]-5-fluorophenyl]furo[3,2-b]pyridin-2-yl)-N,N-dimethylbenzamide]: the half-maximal inhibitory concentration (IC50) at TBK1 is greater than 5 µM.

Take `CN(C)C(=O)c1ccc(-c2cc3ncc(C4CC4)c(-c4ccc(NC5CCOCC5)c(C#N)c4)c3o2)c(F)c1` [Compound 309, 4-(7-[3-cyano-4-[(oxan-4-yl)amino]phenyl]-6-cyclopropylfuro[3,2-b]pyridin-2-yl)-3-fluoro-N,N-dimethylbenzamide]: the IC50 at TBK1 is greater than 5 µM.

Regarding `CN(CCO)C(=O)c1ccc(-c2cc3ncc(C4CC4)c(-c4ccc(NC5CCOCC5)c(C#N)c4)c3o2)c(F)c1` [Compound 311, 4-(7-(3-cyano-4-(tetrahydro-2H-pyran-4-ylamino)phenyl)-6-cyclopropylfuro[3,2-b]pyridin-2-yl)-3-fluoro-N-(2-hydroxyethyl)-N-methylbenzamide], the IC50 on TBK1 was greater than 5 µM. Still for that read-out and setting: the same measure for `CN(C)C(=O)c1ccc(-c2cc3nccc(-c4cc(F)c(OC5CCOC6(CC6)C5)c(C#N)c4)c3o2)cc1` (centres unmarked) [Compound 288, 4-[7-(3-cyano-5-fluoro-4-[4-oxaspiro[2.5]octan-7-yloxy]phenyl)furo[3,2-b]pyridin-2-yl]-N,N-dimethylbenzamide hydrochloride]: greater than 5 µM; for `COc1cc(C(=O)N(C)C)ccc1-c1cc2nccc(-c3cc(F)c(OC4CCOC5(CC5)C4)c(C#N)c3)c2o1` (centres unmarked) [Compound 293, 4-[7-(3-cyano-5-fluoro-4-[4-oxaspiro[2.5]octan-7-yloxy]phenyl)furo[3,2-b]pyridin-2-yl]-3-methoxy-N,N-dimethylbenzamide]: greater than 5 µM; for `CN(C)C(=O)c1ccc(-c2cc3ncc(C4CC4)c(-c4ccc(OC5CCOCC5)c(C#N)c4)c3o2)c(F)c1` [Compound 310, 4-[7-[3-cyano-4-(oxan-4-yloxy)phenyl]-6-cyclopropylfuro[3,2-b]pyridin-2-yl]-3-fluoro-N,N-dimethylbenzamide]: greater than 5 µM.
